One assay concerns the target T1, Aminopeptidase N (Plasmodium falciparum FcB1/Columbia, UniProt O96935).
T1 sequence (O96935 whole entry): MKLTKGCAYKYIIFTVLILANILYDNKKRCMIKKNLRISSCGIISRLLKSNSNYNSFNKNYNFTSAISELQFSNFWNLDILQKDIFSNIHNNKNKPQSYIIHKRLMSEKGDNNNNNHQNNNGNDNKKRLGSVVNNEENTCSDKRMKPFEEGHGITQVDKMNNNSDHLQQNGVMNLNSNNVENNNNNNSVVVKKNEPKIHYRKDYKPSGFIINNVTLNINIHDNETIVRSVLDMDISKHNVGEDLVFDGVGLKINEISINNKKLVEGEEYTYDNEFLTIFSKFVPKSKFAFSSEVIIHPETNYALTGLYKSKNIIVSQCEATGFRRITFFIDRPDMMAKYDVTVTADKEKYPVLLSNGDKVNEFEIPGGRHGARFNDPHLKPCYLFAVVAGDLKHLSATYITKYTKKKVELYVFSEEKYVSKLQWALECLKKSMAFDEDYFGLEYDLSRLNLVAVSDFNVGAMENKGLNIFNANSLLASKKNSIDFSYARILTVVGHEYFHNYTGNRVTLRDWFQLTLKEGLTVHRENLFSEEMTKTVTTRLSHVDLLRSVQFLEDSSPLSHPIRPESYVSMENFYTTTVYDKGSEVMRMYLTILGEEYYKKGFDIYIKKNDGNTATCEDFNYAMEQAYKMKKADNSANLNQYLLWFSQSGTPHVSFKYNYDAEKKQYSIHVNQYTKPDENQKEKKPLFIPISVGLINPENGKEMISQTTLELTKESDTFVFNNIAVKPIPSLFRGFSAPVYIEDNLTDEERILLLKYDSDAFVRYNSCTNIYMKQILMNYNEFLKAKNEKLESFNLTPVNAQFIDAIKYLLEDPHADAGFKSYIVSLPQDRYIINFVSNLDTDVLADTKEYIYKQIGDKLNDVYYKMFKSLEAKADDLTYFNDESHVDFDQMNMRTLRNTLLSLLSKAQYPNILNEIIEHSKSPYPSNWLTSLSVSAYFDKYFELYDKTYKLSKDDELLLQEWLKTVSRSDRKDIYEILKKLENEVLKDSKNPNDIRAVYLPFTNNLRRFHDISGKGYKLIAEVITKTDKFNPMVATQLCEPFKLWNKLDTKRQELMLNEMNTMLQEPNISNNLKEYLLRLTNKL
The assay can be described thus: malaria alanyl aminopeptidase activity blockers – biochemical, fluorogenic H-Leu-NHMec substrate, 1536-well (AID 1445). Details: species or system Plasmodium falciparum 3D7, 3D7.

A further assay addresses T2, Leucine aminopeptidase (Plasmodium falciparum 3D7, UniProt Q8IL11).
T2 sequence (Q8IL11 whole entry): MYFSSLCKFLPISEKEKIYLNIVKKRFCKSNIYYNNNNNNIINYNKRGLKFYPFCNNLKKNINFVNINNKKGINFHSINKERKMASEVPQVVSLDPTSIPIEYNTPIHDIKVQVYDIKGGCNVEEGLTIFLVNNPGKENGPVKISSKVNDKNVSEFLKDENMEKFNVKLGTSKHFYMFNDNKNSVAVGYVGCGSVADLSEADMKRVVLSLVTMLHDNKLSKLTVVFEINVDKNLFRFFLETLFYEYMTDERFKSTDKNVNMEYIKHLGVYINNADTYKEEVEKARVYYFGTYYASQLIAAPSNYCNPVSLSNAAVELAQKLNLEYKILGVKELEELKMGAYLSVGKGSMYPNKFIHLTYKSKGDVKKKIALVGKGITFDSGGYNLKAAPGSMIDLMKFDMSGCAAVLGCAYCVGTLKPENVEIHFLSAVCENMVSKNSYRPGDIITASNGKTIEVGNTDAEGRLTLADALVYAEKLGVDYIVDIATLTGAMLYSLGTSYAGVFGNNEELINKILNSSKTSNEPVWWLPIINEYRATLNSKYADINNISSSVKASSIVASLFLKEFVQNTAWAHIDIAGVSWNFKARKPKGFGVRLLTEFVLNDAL
In words: P. falciparum M17LAP inhibitors, primary screen, biochemical, fluorogenic H-Leu-NHMec substrate, 1536-well (AID 1619). It is filed as functional.

Assay [1] has as its target T3, Cytochrome P450 3A4 (Homo sapiens, UniProt P08684).
Assay [2] has as its target T3, Cytochrome P450 3A4. Conditions: Potency.
Assay [3] is described as follows: cells. The assay is classed as functional, cell-based.
The nature of assay [4]: fluconazole-exposed Candida albicans growth modulators – fluorescence, retest, confirmation (AID 2467). It is filed as functional, cell-based.
A short description of assay [5]: NIH-3T3 fibroblast cytotoxicity, dose response, cytotoxicity control, cell-based, fluorescence, Alamar Blue, secondary assay (AID 2327).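 Also: NIH-3T3 mouse fibroblasts cultured with fluconazole at 8 µg/mL.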 The assay is classed as functional. On the technique in general: The colour change of resazurin is a common sign of viable cells or microbes.
Assay [6] is described as follows: cells. It is filed as functional, cell-based. The source holds these as a separate data set.
Assay [7] has as its target Voltage-dependent T-type calcium channel subunit alpha-1H (Homo sapiens, UniProt O95180). The assay is classed as functional.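 Also: channel activity triggered by adding a high calcium stimulation buffer.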
Assay [8] in a line: HEK-293T cell viability reduction – luminescence, B-cell screen hits, cytotoxicity control for BCR NF-kB inhibitor project, dose response (AID 489021).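 Also: HEK-293T cells carrying an NF-kB luciferase reporter; cells exposed to compound for about 14 hours before viability readout.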 The assay is classed as functional, cell-based.
Assay [9] has as its target T4, Calpain-2 catalytic subunit (Sus scrofa, UniProt P43367).
T4 sequence (P43367 whole entry): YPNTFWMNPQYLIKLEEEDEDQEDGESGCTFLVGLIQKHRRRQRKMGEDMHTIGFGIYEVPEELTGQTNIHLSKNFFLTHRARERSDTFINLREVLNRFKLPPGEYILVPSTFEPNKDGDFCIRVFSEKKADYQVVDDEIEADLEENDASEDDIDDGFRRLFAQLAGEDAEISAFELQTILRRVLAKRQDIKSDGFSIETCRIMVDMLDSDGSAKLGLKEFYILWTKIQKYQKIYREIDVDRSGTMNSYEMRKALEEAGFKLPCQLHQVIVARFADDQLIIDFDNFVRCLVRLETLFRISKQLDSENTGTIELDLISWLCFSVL
In words: m-calpain protease blockers, concentration series – biochemical, fluorogenic peptide substrate, dose response (AID 1420). The assay is classed as functional.

Another assay deals with INS1. In words: INS-1E survival protection against cytokine death – cell-based, luminescence, retest, dose response (AID 449756).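 Also: cell death triggered by IL-1 beta plus TNF-alpha plus IFN-gamma mixture; protective hits raise ATP signal compared with cytokine alone wells.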 It is filed as functional. The conditions noted are these: Rattus norvegicus.

Each structure is given as a SMILES string. Calls of active or inactive are those of the source. Some results are limits rather than exact numbers.

T3 sequence (P08684 whole entry): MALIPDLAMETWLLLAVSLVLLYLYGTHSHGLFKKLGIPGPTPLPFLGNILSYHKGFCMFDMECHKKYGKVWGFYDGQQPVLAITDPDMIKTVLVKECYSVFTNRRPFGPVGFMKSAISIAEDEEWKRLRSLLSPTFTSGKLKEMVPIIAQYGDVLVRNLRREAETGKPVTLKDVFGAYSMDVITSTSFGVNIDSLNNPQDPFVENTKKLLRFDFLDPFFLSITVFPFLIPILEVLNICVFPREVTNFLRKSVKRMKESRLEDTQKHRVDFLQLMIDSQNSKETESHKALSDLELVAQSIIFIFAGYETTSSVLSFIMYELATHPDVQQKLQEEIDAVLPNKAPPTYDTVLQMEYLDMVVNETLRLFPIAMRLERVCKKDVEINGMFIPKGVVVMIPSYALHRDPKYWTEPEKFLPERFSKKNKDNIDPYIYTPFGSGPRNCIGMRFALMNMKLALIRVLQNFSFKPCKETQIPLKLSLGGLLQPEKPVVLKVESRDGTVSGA
Sequence of Voltage-dependent T-type calcium channel subunit alpha-1H (O95180 whole entry): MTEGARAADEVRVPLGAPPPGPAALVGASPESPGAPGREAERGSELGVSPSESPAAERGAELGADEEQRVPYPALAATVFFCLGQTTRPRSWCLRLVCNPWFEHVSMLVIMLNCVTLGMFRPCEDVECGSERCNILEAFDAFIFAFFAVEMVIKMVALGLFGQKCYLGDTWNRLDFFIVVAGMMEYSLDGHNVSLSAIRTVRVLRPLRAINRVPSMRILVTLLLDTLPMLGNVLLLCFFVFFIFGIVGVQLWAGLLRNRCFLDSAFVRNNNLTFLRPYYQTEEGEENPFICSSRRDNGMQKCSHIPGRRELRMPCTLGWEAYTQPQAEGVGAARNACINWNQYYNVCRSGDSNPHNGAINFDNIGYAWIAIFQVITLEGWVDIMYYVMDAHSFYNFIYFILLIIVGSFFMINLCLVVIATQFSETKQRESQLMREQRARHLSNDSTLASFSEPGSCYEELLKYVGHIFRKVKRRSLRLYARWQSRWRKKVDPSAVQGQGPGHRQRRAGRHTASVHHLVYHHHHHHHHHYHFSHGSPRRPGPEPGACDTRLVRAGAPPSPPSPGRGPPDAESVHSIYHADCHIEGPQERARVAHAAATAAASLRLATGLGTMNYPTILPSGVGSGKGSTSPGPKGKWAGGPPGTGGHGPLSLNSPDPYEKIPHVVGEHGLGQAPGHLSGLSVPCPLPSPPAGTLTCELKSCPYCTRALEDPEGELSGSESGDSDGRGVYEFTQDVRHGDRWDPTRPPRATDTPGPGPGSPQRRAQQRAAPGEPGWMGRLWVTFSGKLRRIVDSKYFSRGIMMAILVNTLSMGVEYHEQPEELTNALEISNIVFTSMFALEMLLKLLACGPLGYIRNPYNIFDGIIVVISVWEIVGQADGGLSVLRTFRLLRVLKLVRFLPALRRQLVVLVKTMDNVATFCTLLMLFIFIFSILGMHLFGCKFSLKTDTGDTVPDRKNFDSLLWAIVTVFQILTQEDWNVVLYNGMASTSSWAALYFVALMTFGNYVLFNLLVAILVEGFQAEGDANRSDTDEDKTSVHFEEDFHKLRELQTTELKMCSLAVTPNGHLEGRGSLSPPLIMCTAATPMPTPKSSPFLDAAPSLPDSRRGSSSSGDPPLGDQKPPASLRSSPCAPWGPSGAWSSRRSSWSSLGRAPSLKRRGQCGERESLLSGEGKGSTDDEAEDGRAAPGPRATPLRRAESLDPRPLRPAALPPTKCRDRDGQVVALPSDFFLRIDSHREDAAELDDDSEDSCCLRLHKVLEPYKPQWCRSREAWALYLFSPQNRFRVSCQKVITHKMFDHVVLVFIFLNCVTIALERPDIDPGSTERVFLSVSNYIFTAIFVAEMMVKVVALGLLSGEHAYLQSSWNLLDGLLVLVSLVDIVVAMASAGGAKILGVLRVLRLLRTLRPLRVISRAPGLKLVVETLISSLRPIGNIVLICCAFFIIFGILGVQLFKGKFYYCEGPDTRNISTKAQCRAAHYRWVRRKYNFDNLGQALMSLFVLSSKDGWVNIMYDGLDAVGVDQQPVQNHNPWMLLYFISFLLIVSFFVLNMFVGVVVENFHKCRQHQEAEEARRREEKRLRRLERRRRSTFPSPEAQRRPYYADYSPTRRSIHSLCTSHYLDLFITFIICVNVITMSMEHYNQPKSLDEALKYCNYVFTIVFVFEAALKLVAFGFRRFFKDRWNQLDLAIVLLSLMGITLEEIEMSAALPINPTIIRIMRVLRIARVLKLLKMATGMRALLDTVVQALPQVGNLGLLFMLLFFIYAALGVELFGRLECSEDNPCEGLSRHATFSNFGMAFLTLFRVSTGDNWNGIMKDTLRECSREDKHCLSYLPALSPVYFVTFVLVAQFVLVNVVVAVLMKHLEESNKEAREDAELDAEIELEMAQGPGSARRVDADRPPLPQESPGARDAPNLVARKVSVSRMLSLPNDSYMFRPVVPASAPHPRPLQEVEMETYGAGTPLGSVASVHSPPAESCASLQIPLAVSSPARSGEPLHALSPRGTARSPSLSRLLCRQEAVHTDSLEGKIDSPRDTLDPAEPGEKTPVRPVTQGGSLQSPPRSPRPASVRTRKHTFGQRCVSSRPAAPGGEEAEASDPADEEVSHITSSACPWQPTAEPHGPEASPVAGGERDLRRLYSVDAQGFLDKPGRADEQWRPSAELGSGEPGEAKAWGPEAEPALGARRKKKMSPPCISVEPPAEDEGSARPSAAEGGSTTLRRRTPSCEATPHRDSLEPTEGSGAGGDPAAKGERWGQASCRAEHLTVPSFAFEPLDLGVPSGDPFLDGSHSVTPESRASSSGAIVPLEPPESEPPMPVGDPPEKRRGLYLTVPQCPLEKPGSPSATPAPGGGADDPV

Usually IC50 stands for the concentration that inhibits the measured activity by half. `O=C(O)C/C(=C\c1ccc(Cl)cc1)c1nc2ccccc2o1`: the IC50 on Aminopeptidase N is 33.9 µM (active); at Leucine aminopeptidase, 105 µM (active). In the case of `CC(C)C[C@H](NC(=O)c1[nH]cnc1C(=O)NC1CCN(C(=O)OC(C)(C)C)CC1)C(=O)OC(C)(C)C`, the IC50 at Aminopeptidase N was 63.9 µM (active).

By AC50 is commonly meant the midpoint of the concentration-response curve, whichever way the signal moves. Take `Clc1ccc2c(c1)C(N1CCNCC1)=Nc1ccccc1O2` [AMOXAPINE]: the AC50 at Cytochrome P450 3A4 [1] is 15.8 µM (inconclusive); at Cytochrome P450 3A4 [2], 10 µM (inconclusive).

For orientation: EC50 means the concentration that produces a half-maximal response. With `Nc1nonc1C(=O)N/N=C/c1cc(Br)ccc1O`, the IC50 on Aminopeptidase N was 3.45 µM (active). In addition, the EC50 in “cells [3]” is 108 µM (active); in assay [4], 0.782 µM (active); in [5], > 160 µM (inactive); in “cells [6]”, > 350 µM (not active). For `C=CCNC(=O)c1cc([N+](=O)[O-])cc2c(=O)[nH]c(Nc3ccc(Cl)c(Cl)c3)nc12`, on Cytochrome P450 3A4 [2], the AC50 was 10 µM (inconclusive). On the same count and under the same terms, under `C=CC(C1=CC(=O)C(OC)=C(OC)C1=O)c1ccccc1` (stereo not drawn) stands 15.8 µM (inconclusive). As to `Cc1ccc(N(C(=O)Cc2c[nH]c3ccccc23)C(C(=O)NC2CCCCC2)c2ccco2)cc1` (stereo not drawn), in assay [7], the EC50 is 10.2 µM (active).

In the case of `Cc1c(O)c(CN2CCCCC2)cc2c3c(c(=O)oc12)CCC3`, the IC50 at Aminopeptidase N was 37.5 µM (active). Consider `CC(C)C(c1nnnn1Cc1ccccc1)N(Cc1ccco1)Cc1cccs1` (stereo not drawn), for which the IC50 in [8] is > 80 µM (inactive). On to `C/C=C/C1Oc2ccc(OC)cc2N2C(=O)C(C)C(OCOC)C12` (stereo not drawn), for which the AC50 on Cytochrome P450 3A4 [2] is 3.98 µM (inconclusive).

Consider `CCCn1c(C)nc2c(N(CCN(C)C)Cc3ccccc3)nc(C)nc21`, for which the AC50 at Cytochrome P450 3A4 [2] was 12.6 µM (inconclusive). With `O=c1oc2ccccc2n1CSc1nc2ccccc2s1`, the EC50 in assay [7] was 550 µM (active). Turning to `CCC(=O)N1c2ccccc2C(N(C(C)=O)c2ccccc2)CC1C` (stereo not drawn), in assay [8], the IC50 is > 80 µM (inactive). For the same molecule, the EC50 in “cells [3]” and in “cells [6]” was > 350 µM (not active) throughout. Regarding `CCN1C(=O)c2cccc3c(S(=O)(=O)Nc4ccccc4)ccc1c23`, the IC50 in [8] was > 80 µM (inactive).

Regarding `CCC1=C(OC(=O)N(CC)CC)N2C(=O)O/C(=N\CCOC)[C@]2(C)[C@H]2C1=CC[C@H]1C(=O)NC(=O)[C@H]12`, the AC50 at Cytochrome P450 3A4 [2] was 10 µM (inconclusive). Take `Cc1[nH]c2ccccc2c1SCC(=O)N1CCCc2ccccc21`: the EC50 in assay [7] was 6.34 µM (active). With `CCCC(=O)Nc1ccc(Sc2ccc([N+](=O)[O-])cc2)cc1`, the IC50 was 10.7 µM (not active) in [9] and 77.8 µM (inactive) in [8].

As to `CC(=O)c1cccc(S(=O)(=O)Nc2cc(C(F)(F)F)ccc2N2CCOCC2)c1`, the IC50 in assay [8] is > 80 µM (inactive).

Consider `Cn1cccc1Cc1nnc(SCC(=O)Nc2ccccc2)n1-c1ccc(F)cc1`, for which the EC50 in [7] was 2.44 µM (active). For the molecule `CCOP(=O)(OCC)c1nc(-c2cccc([N+](=O)[O-])c2)oc1N1CCCCC1`, at Aminopeptidase N, the IC50 was 50.1 µM (active).

Take `CCOC(=O)C1=C(Nc2ccc(OC)cc2)S/C(=C\c2ccc(OCC(=O)O)c(OCC)c2)C1=O`: the IC50 on Aminopeptidase N was 36.3 µM (active); at Leucine aminopeptidase, 21.3 µM (active). As to `Cc1ccc(NC(=O)c2c(-c3c(F)cccc3Cl)noc2C)cc1F`, in assay [7], the EC50 is 5.69 µM (active). In addition, the AC50 in the assay with INS1 is > 260 µM (inactive).

The record behind these values is ChEMBL document CHEMBL1201862, “PubChem BioAssay data set” (2004).
